Laboratory results taken from BindingDB's records for patent US20240425524 (Merck Sharp & Dohme, 2024).

Biological target: T1, Receptor-interacting serine/threonine-protein kinase 1 (Homo sapiens, UniProt Q13546)
T1 sequence (Q13546 whole entry): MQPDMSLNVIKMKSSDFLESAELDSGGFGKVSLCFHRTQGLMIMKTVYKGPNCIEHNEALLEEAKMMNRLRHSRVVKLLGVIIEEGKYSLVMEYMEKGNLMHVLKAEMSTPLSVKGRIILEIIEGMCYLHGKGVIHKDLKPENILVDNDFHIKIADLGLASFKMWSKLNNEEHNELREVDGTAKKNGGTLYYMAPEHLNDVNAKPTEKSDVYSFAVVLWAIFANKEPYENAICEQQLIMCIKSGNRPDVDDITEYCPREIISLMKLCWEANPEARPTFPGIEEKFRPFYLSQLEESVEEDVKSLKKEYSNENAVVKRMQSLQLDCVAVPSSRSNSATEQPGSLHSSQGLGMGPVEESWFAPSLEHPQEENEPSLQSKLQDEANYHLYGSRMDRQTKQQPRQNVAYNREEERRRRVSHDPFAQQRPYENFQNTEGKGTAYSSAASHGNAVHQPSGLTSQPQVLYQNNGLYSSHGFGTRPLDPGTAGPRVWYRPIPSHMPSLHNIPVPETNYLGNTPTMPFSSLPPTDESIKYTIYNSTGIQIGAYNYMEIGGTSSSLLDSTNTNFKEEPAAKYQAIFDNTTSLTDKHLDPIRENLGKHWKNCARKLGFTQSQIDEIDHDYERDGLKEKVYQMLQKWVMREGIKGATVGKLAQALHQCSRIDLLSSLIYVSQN
Experiment: RIPK1-ADP-Glo Enzymatic Assay
Protocol: In this assay, the potency (EC50) of each compound was determined from a ten-point (1:3 serial dilution: top compound concentration of 100000 nM) titration curve using the following outlined procedure. To each well of a white ProxiPlus 384 well-plate, 30 nL of compound (1% DMSO in final assay volume of 3 μL) was dispensed, followed by the addition of 2 μL of 1x assay buffer (25 mM Hepes 7.3, 20 mM MgCl2, 50 mM NaCl, 1 mM DTT, 0.005% Tween20, and 0.02% BSA) containing 37.5 nM of GST-RIPK1 (recombinant GST-RIPK1 kinase domain (residues 1-327) enzyme produced from baculovirus-transfected Sf21 cells: MW=62 kDa). Plates were placed in an ambient temperature humidified chamber for a 30 minutes pre-incubation with compound. Subsequently, each reaction was initiated by the addition of 1 μL 1× assay buffer containing 900 μM ATP and […]. The final reaction in each well of 3 μL consists of 25 nM of GST-RIPK1, 300 µM ATP, and 3 μM dephosphorylated-MBP. Kinase reactions were allowed to proceed for 150 minutes prior to adding ADP-Glo reagents per Promega's outlined kit protocol. Dose-response curves were generated by plotting percent effect (% product conversion: Y-axis) vs. Logio compound concentrations (X-axis).

Row | EC50 [nM] | Compound
1 | 17 | Cc1csc2ncnc(N3CCC4(CC3)CN3CC[C@@H](c5cc(F)cc(F)c5)N3C4=O)c12 [US20240425524, Example 1.15]
2 | 10 | O=C1N2[C@H](c3cc(F)cc(F)c3)CCN2CC12CCN(c1cc(Cl)c(F)cn1)CC2 [US20240425524, Example 1.10]
